Results as given in patent US20240246913A1, “2-CARBOXYL-INDOLE INHIBITORS OF METALLO-BETA-LACTAMASES” (Oxford University Innovation Limited, priority 2021, published 2024).
Where a name gives a salt, the structure may show the parent alone. Read-outs that look alike come from different tables or passages of the source.

Assays:
Format in all cases: biochemical
[1] = target: VIM-2 (Escherichia coli, UniProt Q5U7L7); assay: MBL inhibition, FC-5 fluorescence assay, VIM-2
Procedure: (§1) Inhibitors were tested using a panel of the clinically relevant B1 MBLs (NDM-1, VIM-1, -2 and IMP-1). Activities were assayed by monitoring the release of a fluorophore following the enzymatic breakdown of the cephalosporin FC-5 (https://pubs.acs.org/doi/abs/10.1021/jm400769b). FC-5 assays were conducted in clear bottomed 384 black well microplates (Greiner); the initial rate of reaction was assessed by monitoring the fluorescence intensity (λex=380 nm and λem=460 nm) using a Pherstar FS (BMG LabTech) plate reader. Initial rates of reaction were determined and dose-response analyses conducted in GraphPad Prism. Dose-response curves were fitted using the log(inhibitor) vs normalized response—variable slope model of GraphPad Prism 12. Each concentration point for routine screening was conducted with 4 intra-plate replicates.

[2] = target: NDM-1 (Klebsiella pneumoniae, UniProt C7C422); assay: MBL inhibition, FC-5 fluorescence assay, NDM-1
Chain of NDM-1 (C7C422 29-270, looked up, species assumed): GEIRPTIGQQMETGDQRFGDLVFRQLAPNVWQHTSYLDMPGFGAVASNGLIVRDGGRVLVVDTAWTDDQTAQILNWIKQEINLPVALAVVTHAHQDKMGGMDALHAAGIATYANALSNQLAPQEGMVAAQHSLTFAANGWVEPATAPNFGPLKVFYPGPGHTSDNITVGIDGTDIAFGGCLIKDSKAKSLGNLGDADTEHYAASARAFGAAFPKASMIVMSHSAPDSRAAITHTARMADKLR
Procedure: as §1

[3] = target: IMP-1 (Serratia marcescens, UniProt P52699); assay: MBL inhibition, FC-5 fluorescence assay, IMP-1
Chain of IMP-1 (P52699 19-246, looked up, species assumed): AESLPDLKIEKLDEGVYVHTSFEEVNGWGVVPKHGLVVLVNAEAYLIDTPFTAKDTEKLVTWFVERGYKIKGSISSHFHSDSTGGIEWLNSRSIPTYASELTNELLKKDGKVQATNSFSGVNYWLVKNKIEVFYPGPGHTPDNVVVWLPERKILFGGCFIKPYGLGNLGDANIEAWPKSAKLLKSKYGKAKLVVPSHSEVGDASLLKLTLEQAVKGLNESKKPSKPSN
Procedure: as §1

[4] = target: VIM-1 (Pseudomonas aeruginosa, UniProt A0A0F7KYQ8); assay: MBL inhibition, FC-5 fluorescence assay, VIM-1
Procedure: as §1

[5] = FC-5 cephalosporin substrate, ranges of obtained pIC50, read-out: pIC50 VIM-2 (converted)
[6] = FC-5 cephalosporin substrate, fluorescence, ranges of obtained pIC50, read-out: pIC50 NDM-1 (converted)
[7] = FC-5 cephalosporin substrate, fluorescence, ranges of obtained pIC50, read-out: pIC50 IMP-1 (converted)
[8] = FC-5 cephalosporin substrate, ranges of obtained pIC50, read-out: pIC50 VIM-1 (converted)

Structure (SMILES)	IC50 [1, 5] [µM]	IC50 [2, 6] [µM]	IC50 [3, 7] [µM]	IC50 [4, 8] [µM]	IC50 ([1]; pIC50 VIM-2, FC-5 cephalosporin substrate, ranges of obtained pIC50) [µM]	IC50 [2] [µM]	IC50 [3] [µM]	IC50 ([4]; pIC50 VIM-1, FC-5 cephalosporin substrate, ranges of obtained pIC50) [µM]
CC(NS(=O)(=O)c1ccccc1)c1cccc2c(-c3cc(Cl)cc(Cl)c3)c(C(=O)O)[nH]c12 (centres unmarked) [IC-1, 3-(3,5-Dichlorophenyl)-7-(1-(phenylsulfonamido)ethyl)-1H-indole-2-carboxylic acid]	> 0.01	> 0.01	> 0.01	> 0.01	–	–	–	–
CC(c1cnn(C)c1)c1cccc2c(-c3ccc(CS(C)(=O)=O)c(F)c3)c(C(=O)O)[nH]c12 (centres unmarked) [IC-3, 3-(3-Fluoro-4-((methylsulfonyl)methyl)phenyl)-7-(1-(1-methyl-1H-pyrazol-4-yl)ethyl)-1H-indole-2-carboxylic acid]	0.001 to 0.01	0.001 to 0.01	> 0.01	> 0.01	–	–	–	–
CC(c1cccs1)c1cccc2c(-c3ccc(CS(C)(=O)=O)c(F)c3)c(C(=O)O)[nH]c12 (centres unmarked) [IC-4, 3-(3-Fluoro-4-((methylsulfonyl)methyl)phenyl)-7-(1-(thiophen-2-yl)ethyl)-1H-indole-2-carboxylic acid]	0.001 to 0.01	0.001 to 0.01	0.001 to 0.01	0.001 to 0.01	–	–	–	–
CC(c1cnn(CCCN)c1)c1cccc2c(-c3ccc(CS(C)(=O)=O)c(F)c3)c(C(=O)O)[nH]c12 (centres unmarked) [IC-5, 7-(1-(1-(3-Aminopropyl)-1H-pyrazol-4-yl)ethyl)-3-(3-fluoro-4-((methylsulfonyl)methyl)phenyl)-1H-indole-2-carboxylic acid]	< 0.0001	0.0001 to 0.001	> 0.01	0.001 to 0.01	–	–	–	–
CC(c1cnc(Cl)s1)c1cccc2c(-c3ccc(CS(C)(=O)=O)c(F)c3)c(C(=O)O)[nH]c12 (centres unmarked) [IC-7, 7-(1-(2-Chlorothiazol-5-yl)ethyl)-3-(3-fluoro-4-((methylsulfonyl)methyl)phenyl)-1H-indole-2-carboxylic acid]	0.001 to 0.01	0.0001 to 0.001	0.001 to 0.01	0.001 to 0.01	–	–	–	–
CC(c1nn[nH]n1)c1cccc2c(-c3ccc(CS(C)(=O)=O)c(F)c3)c(C(=O)O)[nH]c12 (centres unmarked) [IC-9, 7-(1-(2H-Tetrazol-5-yl)ethyl)-3-(3-fluoro-4-((methylsulfonyl)methyl)phenyl)-1H-indole-2-carboxylic acid]	> 0.01	> 0.01	> 0.01	> 0.01	–	–	–	–
CC(c1cccc2c(-c3ccc(CS(C)(=O)=O)c(Cl)c3)c(C(=O)O)[nH]c12)n1cc(CCCN)nn1 (centres unmarked) [IC-10, 7-[1-[4-(3-Aminopropyl)triazol-1-yl]ethyl]-3-[3-chloro-4-(methylsulfonylmethyl)phenyl]-1H-indole-2-carboxylic acid]	< 0.0001	0.0001 to 0.001	> 0.01	> 0.01	–	–	–	–
CC(c1cccc2c(-c3ccc(CS(C)(=O)=O)c(F)c3)c(C(=O)O)[nH]c12)N1CCNCC1 (centres unmarked) [IC-12, 3-(3-Fluoro-4-((methylsulfonyl)methyl)phenyl)-7-(1-(piperazin-1-yl)ethyl)-1H-indole-2-carboxylic acid]	–	–	–	–	0.001 to 0.01	> 0.01	> 0.01	> 0.01
C[C@@H](c1cccc2cc(C(=O)O)[nH]c12)N1C[C@]2(C[C@@H](CN)C2)OC1=O [IC-30]	> 0.01	> 0.01	> 0.01	> 0.01	–	–	–	–
C[C@@H](c1cccc2c(-c3cc(O)nc(O)c3)c(C(=O)O)[nH]c12)N1C[C@]2(C[C@@H](CN)C2)OC1=O [IC-31, 3-(2,6-dihydroxypyridin-4-yl)-7-[(1S)-1-[(2r,4r)-2-(aminomethyl)-6-oxo-5-oxa-7-azaspiro[3.4]octan-7-yl]ethyl]-1H-indole-2-carboxylic acid]	0.001 to 0.01	0.001 to 0.01	> 0.01	> 0.01	–	–	–	–
C[C@@H](c1cccc2c(N3CCS(=O)(=O)CC3)c(C(=O)O)[nH]c12)N1C[C@]2(C[C@@H](CN)C2)OC1=O [IC-40, 7-((S)-1-((2S,4r)-2-(aminomethyl)-6-oxo-5-oxa-7-azaspiro[3.4]octan-7-yl)ethyl)-3-(1,1-dioxidothiomorpholino)-1H-indole-2-carboxylic acid]	> 0.01	> 0.01	0.001 to 0.01	> 0.01	–	–	–	–

Further lines, with some results ahead:

IC50 [1, 5] [µM]	IC50 [2, 6] [µM]	IC50 [3, 7] [µM]	IC50 [4, 8] [µM]	Structure (SMILES)	IC50 ([1]; pIC50 VIM-2, FC-5 cephalosporin substrate, ranges of obtained pIC50) [µM]	IC50 [2] [µM]	IC50 [3] [µM]	IC50 ([4]; pIC50 VIM-1, FC-5 cephalosporin substrate, ranges of obtained pIC50) [µM]
0.0001 to 0.001	> 0.01	> 0.01	> 0.01	CC(NC(=O)C[C@H]1CC[C@H](N)CC1)c1cccc2c(-c3ccc(CS(C)(=O)=O)c(F)c3)c(C(=O)O)[nH]c12 (mixture of isomers) [IC-100, 7-[1-[[2-(4-Aminocyclohexyl)acetyl]amino]ethyl]-3-[3-fluoro-4-(methylsulfonylmethyl)phenyl]-1H-indole-2-carboxylic acid]	–	–	–	–
> 0.01	0.001 to 0.01	> 0.01	> 0.01	CC(CC(=O)NCCc1c[nH]cn1)c1cccc2c(-c3ccc(CS(C)(=O)=O)c(F)c3)c(C(=O)O)[nH]c12 (racemic) [IC-104, 3-[3-Fluoro-4-(methanesulfonylmethyl)phenyl]-7-(1-{[2-(1H-imidazol-4-yl)ethyl]carbamoy}propan-2-yl)-1H-indole-2-carboxylic acid]	–	–	–	–
0.001 to 0.01	–	–	0.001 to 0.01	CC(c1cccc2c(-c3ccc(CS(C)(=O)=O)c(F)c3)c(C(=O)O)[nH]c12)N1CC(CCCN)OC1=O (single isomer, unassigned) [IC-83, 7-(1-(5-(3-Aminopropyl)-2-oxooxazolidin-3-yl)ethyl)-3-(3-fluoro-4-((methylsulfonyl)methyl)phenyl)-1H-indole-2-carboxylic acid]	–	–	–	–
0.0001 to 0.001	0.0001 to 0.001	> 0.01	0.0001 to 0.001	CC(c1cccc2c(-c3ccc(CS(C)(=O)=O)c(F)c3)c(C(=O)O)[nH]c12)N1CC(CCCN)OC1=O (single isomer, unassigned) [IC-84, 7-(1-(5-(3-Aminopropyl)-2-oxooxazolidin-3-yl)ethyl)-3-(3-fluoro-4-((methylsulfonyl)methyl)phenyl)-1H-indole-2-carboxylic acid]	–	–	–	–
0.001 to 0.01	0.0001 to 0.001	> 0.01	0.001 to 0.01	C[C@@H](c1cccc2c(-c3ccc4c(c3)CC(=O)N4)c(C(=O)O)[nH]c12)N1C[C@]2(C[C@@H](CN)C2)OC1=O [IC-41, 7-((S)-1-((2S,4r)-2-(aminomethyl)-6-oxo-5-oxa-7-azaspiro[3.4]octan-7-yl)ethyl)-3-(2-oxoindolin-5-yl)-1H-indole-2-carboxylic acid]	–	–	–	–
0.0001 to 0.001	0.0001 to 0.001	> 0.01	0.001 to 0.01	C[C@@H](c1cccc2c(-c3cnc(N)nc3)c(C(=O)O)[nH]c12)N1C[C@]2(C[C@@H](CN)C2)OC1=O [IC-42, 7-((S)-1-((2S,4r)-2-(aminomethyl)-6-oxo-5-oxa-7-azaspiro[3.4]octan-7-yl)ethyl)-3-(2-aminopyrimidin-5-yl)-1H-indole-2-carboxylic acid]	–	–	–	–
0.001 to 0.01	0.0001 to 0.001	> 0.01	> 0.01	C[C@@H](c1cccc2c(-c3cn[nH]c3)c(C(=O)O)[nH]c12)N1C[C@]2(C[C@@H](CN)C2)OC1=O [IC-43, 7-((S)-1-((2S,4r)-2-(aminomethyl)-6-oxo-5-oxa-7-azaspiro[3.4]octan-7-yl)ethyl)-3-(1H-pyrazol-4-yl)-1H-indole-2-carboxylic acid]	–	–	–	–
< 0.0001	0.001 to 0.01	> 0.01	> 0.01	CC(c1noc(C2CNC(=O)C2)n1)c1cccc2c(-c3ccc(CS(C)(=O)=O)c(F)c3)c(C(=O)O)[nH]c12 (centres unmarked) [IC-63, 3-[3-Fluoro-4-(methylsulfonylmethyl)phenyl]-7-[1-[5-(5-oxopyrrolidin-3-yl)-1,2,4-oxadiazol-3-yl]ethyl]-1H-indole-2-carboxylic acid]	–	–	–	–
0.001 to 0.01	0.001 to 0.01	> 0.01	> 0.01	CC(c1cccc2c(-c3ccc(CS(C)(=O)=O)c(F)c3)c(C(=O)O)[nH]c12)n1cc(CCCN)[nH]c1=O (centres unmarked) [IC-64, 7-[1-[5-(3-Aminopropyl)-2-oxo-1H-imidazol-3-yl]ethyl]-3-[3-fluoro-4-(methylsulfonylmethyl)phenyl]-1H-indole-2-carboxylic acid]	–	–	–	–
0.001 to 0.01	0.0001 to 0.001	> 0.01	0.001 to 0.01	CC(c1cccc2c(-c3ccc(CS(C)(=O)=O)c(F)c3)c(C(=O)O)[nH]c12)n1cc(CCCNC(=N)N)oc1=O (centres unmarked) [IC-73, 3-(3-Fluoro-4-((methylsulfonyl)methyl)phenyl)-7-(1-(5-(3-guanidinopropyl)-2-oxooxazol-3(2H)-yl)ethyl)-1H-indole-2-carboxylic acid hydrochloride]	–	–	–	–
0.001 to 0.01	0.0001 to 0.001	> 0.01	0.001 to 0.01	CC(c1cccc2c(-c3ccc(CS(C)(=O)=O)c(F)c3)c(C(=O)O)[nH]c12)n1cc(CCCN(C)C)oc1=O (centres unmarked) [IC-75, 7-(1-(5-(3-(Dimethylamino)propyl)-2-oxooxazol-3(2H)-yl)ethyl)-3-(3-fluoro-4-((methylsulfonyl)methyl)phenyl)-1H-indole-2-carboxylic acid]	–	–	–	–
